Source: patent US20230172936A1, “VCP/p97 INHIBITOR FOR THE TREATMENT OF CANCER” (Cleave Therapeutics, Inc., priority 2020, published 2023)

Columns and labels:
Assay in all cases: Ex-vivo cytotoxicity by Cell Titer Glo
Assay type in all cases: cell-based
[1] = system: CTG-2227; conditions: Homo sapiens, 144 h; CTG-2227, 6 days
Description: (§1) Acute myelogenous leukemia (AML) is the most common acute leukemia in adults. A hematologic cancer, the disease is highly heterogeneous, with multiple subtypes. About 30% of AML cases harbor a FLT3/ITD mutation making the disease highly proliferative and more aggressive with a high risk of relapse.
(§2) Triplicate wells with media only and duplicate wells of vehicle (0.2% DMSO) were used as negative controls. […] To measure proliferation, untreated cells at days 0 and 6 were evaluated via Cell Titer Glo.
(§3) Protocol: • 1. AML cells were thawed and resuspended in enriched media composed of StemSpan™ Serum-Free Expansion Media (SFEM), 2% heat-inactivated FBS, StemSpan™ CC110 and recombinant human IL-3. • 2. 20,000 cells/well in 100 μL volume were plated on study day 0. • 3. […] Cells were incubated in the presence of drug for 6 days. • 5. On day 6, plates were removed from the incubator and equilibrated to room temperature for 20 minutes. 100 μL/well Cell Titer Glo was added to each well and incubated for 10 minutes before plate reading. • 6. Luminescence was recorded using Tecan Infinite M Plex plate reader.

[2] = system: CTG-2228; conditions: Homo sapiens, 144 h; CTG-2228, 6 days
Description: as §1, §2, §3

[3] = system: CTG-2232; conditions: Homo sapiens, 144 h; CTG-2232, 6 days
Description: as §1, §2, §3

[4] = system: CTG-2233; conditions: Homo sapiens, 144 h; CTG-2233, 6 days
Description: as §1, §2, §3

[5] = system: CTG-2234; conditions: Homo sapiens, 144 h; CTG-2234, 6 days
Description: as §1, §2, §3

[6] = system: CTG-2238; conditions: Homo sapiens, 144 h; CTG-2238, 6 days
Description: as §1, §2, §3

[7] = system: CTG-2239; conditions: Homo sapiens, 144 h; CTG-2239, 6 days
Description: as §1, §2, §3

[8] = system: CTG-2240; conditions: Homo sapiens, 144 h; CTG-2240, 6 days
Description: as §1, §2, §3

[9] = system: CTG-2242; conditions: Homo sapiens, 144 h; CTG-2242, 6 days
Description: as §1, §2, §3

[10] = system: CTG-2243; conditions: Homo sapiens, 144 h; CTG-2243, 6 days
Description: as §1, §2, §3

[11] = system: CTG-2453; conditions: Homo sapiens, 144 h; CTG-2453, 6 days
Description: as §1, §2, §3

[12] = system: CTG-2454; conditions: Homo sapiens, 144 h; CTG-2454, 6 days
Description: as §1, §2, §3

[13] = system: CTG-2456; conditions: Homo sapiens, 144 h; CTG-2456, 6 days
Description: as §1, §2, §3

[14] = system: CTG-2457; conditions: Homo sapiens, 144 h; CTG-2457, 6 days
Description: as §1, §2, §3

[15] = system: CTG-2502; conditions: Homo sapiens, 144 h; CTG-2502, 6 days
Description: as §1, §2, §3

[16] = system: CTG-2700; conditions: Homo sapiens, 144 h; CTG-2700, 6 days
Description: as §1, §2, §3

[17] = system: CTG-2701; conditions: Homo sapiens, 144 h; CTG-2701, 6 days
Description: as §1, §2, §3

[18] = system: CTG-2704; conditions: Homo sapiens, 144 h; CTG-2704, 6 days
Description: as §1, §2, §3

[19] = system: CTG-2774; conditions: Homo sapiens, 144 h; CTG-2774, 6 days
Description: as §1, §2, §3

[20] = system: CTG-2775; conditions: Homo sapiens, 144 h; CTG-2775, 6 days
Description: as §1, §2, §3

[21] = system: CTG-2901; conditions: Homo sapiens, 144 h; CTG-2901, 6 days
Description: as §1, §2, §3

[22] = system: CTG-3438; conditions: Homo sapiens, 144 h; CTG-3438, 6 days
Description: as §1, §2, §3

[23] = system: CTG-3439; conditions: Homo sapiens, 144 h; CTG-3439, 6 days
Description: as §1, §2, §3

[24] = system: CTG-3440; conditions: Homo sapiens, 144 h; CTG-3440, 6 days
Description: as §1, §2, §3

Compound: Cc1cc2c(C(N)=O)cccc2n1-c1nc2c(c(NCc3ccccc3)n1)CCCN2 [Compound 1, 1-(4-(Benzylamino)-5,6,7,8-tetrahydropyrido[2,3-d]pyrimidin-2-yl)-2-methyl-1H-indole-4-carboxamide]
- IC50 [1]: 274 nM
- IC50 [2]: 568 nM
- IC50 [3]: 275 nM
- IC50 [4]: 412 nM
- IC50 [5]: 485 nM
- IC50 [6]: 237 nM
- IC50 [7]: 395 nM
- IC50 [8]: 500 nM
- IC50 [9]: 501 nM
- IC50 [10]: 460 nM
- IC50 [11]: 307 nM
- IC50 [12]: 208 nM
- IC50 [13]: 212 nM
- IC50 [14]: 627 nM
- IC50 [15]: 480 nM
- IC50 [16]: 386 nM
- IC50 [17]: 395 nM
- IC50 [18]: 666 nM
- IC50 [19]: 327 nM
- IC50 [20]: 437 nM
- IC50 [21]: 446 nM
- IC50 [22]: 263 nM
- IC50 [23]: 691 nM
- IC50 [24]: 332 nM
